Results as given in US20220394981A1, “MICRONUTRIENT FORMULATIONS THAT CONTROL PLANT PATHOGENS” (priority 2021, published 2022).
Where two headings read alike, the source gives them in different places.

What was measured:
[1] = cited from earlier work
[2] = cited from earlier work; remark: listed apart in the source
[3] = cited from earlier work; remark: listed apart in the source
[4] = cited from earlier work; remark: listed apart in the source
[5] = cited from earlier work; remark: listed apart in the source
[6] = cited from earlier work; remark: listed apart in the source
[7] = tested on: citrus greening disease; assay type: in vivo, Ruby red grapefruit trees; conditions: for Percentage of Trees Showing HLB Leaf Patterns: 270 days after the first treatment application
Method: (§1) Experimental testing was performed at the Florida Research Center for Agricultural Sustainability (“FLARES”) in Vero Beach, Fla. where the inventor, Robert C. Adair, Jr. serves as the executive director after having founded FLARES in 2004. Testing was conducted on a uniform block of ninety-six (96) Ruby red grapefruit trees planted on Dec. 19, 2018 grafted with USDA “US-897” citrus rootstock. The red grapefruit trees were randomly assigned one of eight (8) treatments in twelve (12) replicated plots using a Randomized Complete Block (“RCB”) design to help ensure homogeneous conditions between test subject trees. The red grapefruit trees were treated using liquid formulations applied to the foliage, the soil proximal to the rhizosphere of the plant, or applied to both the foliage and the soil. The micronutrient chelate formulations were applied monthly, the citric acid treatments were applied weekly, and the iron nitrate treatment was applied every two weeks.
(§2) Before being treated, the red grapefruit trees were allowed time to establish root systems. The red grapefruit trees were exposed to infection of the CLas bacteria through native populations of the Asian citrus psyllid insect, which is the vector that spreads citrus greening disease among trees. The caliper, canopy diameter, and height for each grapefruit tree was measured prior to treatment and subsequently measured every six (6) to nine (9) months thereafter for the two-and-half (2.5) year duration of the experiment.
Tree condition was scored visually according to the disease indexing (“DI”) technique taught by Gottwald, Aubert, and Xue-Yuan. See Gottwald, T. R., B. Aubert, and Z. Xue-Yuan, Preliminary Analysis of Citrus Greening (Huanglungbin) Epidemics in the People's Republic of China and French Reunion Island, PHYTOPATHOLOGY Vol. No. 79: 687-693 (1989). Disease indexing techniques divide an image of a plant into multiple sections and/or subsections, such as hemispheres and quadrants, and assign each image section a score from zero to four. The score reflects the observable severity of disease impact on a plant with a score of four indicating a plant with no visible symptoms and a score of zero indicating the highest level of severity. The score for all sections of a plant image are added together to establish an overall DI score for a particular plant image, such that a healthy vigorous tree with no symptoms has a DI of 16.
Table 5 below presents data from the visual inspection of the red grapefruit trees for the symptoms of citrus greening disease measured at 270 days after the first treatment application or approximately half way through the experiment.

[8] = tested on: CLas bacteria; assay type: in vivo, Ruby red grapefruit trees
Method: as §1, §2
Individual leaf samples were collected from each of the ninety-six (96) trees and submitted to Southern Gardens Diagnostic Laboratory in Clewiston, Fla. for Polymerase Chain Reaction (“PCR”) analysis to determine the presence of CLas bacteria DNA. The results were expressed cycle threshold (“Ct”) values, and the logarithm of the copy number per milligram of tissue values were recorded and statistically evaluated. In a PCR analysis, a positive reaction is detected by the accumulation of a fluorescent signal. The Ct value is defined as the number of cycles required for a fluorescent signal to cross a threshold (i.e., exceeds background levels). Ct values are inversely proportional to the amount of a target nucleic acid in the sample being tested such that the lower the Ct level, the greater the amount of target nucleic acid in the sample. Ct values less than 29 are considered strong positive reactions indicative of an abundance of the target nucleic acid, and Ct values of 38-40 are indicative of minimal amounts of target nucleic acid.

[9] = tested on: Ruby red grapefruit trees; test: Tree growth versus untreated control, field trial; conditions: in vivo
Method: as §1
Before being treated, the red grapefruit trees were allowed time to establish root systems. […] The caliper, canopy diameter, and height for each grapefruit tree was measured prior to treatment and subsequently measured every six (6) to nine (9) months thereafter for the two-and-half (2.5) year duration of the experiment.
Canopy areas were determined from aerial images captured by a camera-equipped unmanned aerial vehicle (“UAV”). […]

[10] = treatments applied as in Table 1 (foliar and/or soil)
[11] = treatments applied as in Table 1 (foliar and/or soil), listed as Fe(III)EDDHA

Row | Molecule | LogK Zn2+ (stability constant) [1] | LogK Ca2+ (stability constant) [2] | LogK Cu2+ (stability constant) [3] | LogK Mn2+ (stability constant) [4] | LogK Fe2+ (stability constant) [5] | LogK Fe3+ (stability constant) [6] | further results
1 | O=C(O)CC(O)(CC(=O)O)C(=O)O [Citrate] | 4.9 | 4.7 | 5.9 | 3.7 | 3.2 | 11.85 | 
2 | O=C([O-])C(NCCNC(C(=O)[O-])c1ccccc1[O-])c1ccccc1[O-].[Fe+3].[Na+] (centres unmarked) [Fe-EDDHA] |  |  |  |  |  | 35.40 | Percentage of Trees Showing HLB Leaf Patterns ([7]; treatments as in Table 1): 10%; Percentage of Trees Showing HLB Leaf Patterns ([7]; treatments as in Table 1, listed as Fe(III)EDDHA): lowest percentage of observable symptoms; symptoms of citrus greening disease, visually and analytically (CLas bacteria by PCR) ([7]; foliar and soil application): reduced the symptoms of citrus greening disease; citrus greening disease leaf symptoms, visual inspection ([7]; infected grapefruit trees): reduced; % of PCR Analysis Showing No CLas (Ct values = 40) [8, 10]: 50%; Average Ct values based on qPCR analysis of citrus leaves [8, 10]: 34.9; Log Copy #/1 mg of Leaf Tissue [8, 10]: 1.2; % of PCR Analysis Showing No CLas (Ct values = 40) [8, 11]: highest percentage; Average Ct values based on qPCR analysis of citrus leaves [8, 11]: highest Ct values; Log Copy #/1 mg of Leaf Tissue [8, 11]: the lowest; tree growth versus an untreated control [9]: increased tree growth
3 | O=C(O)CN(CCN(CC(=O)O)CC(=O)O)CCN(CC(=O)O)CC(=O)O [DTPA, diethylenetriaminepentaacetic acid] | 18.3 | 10.7 | 21.1 | 15.1 | 16.5 | 28.6 | 
4 | Iron Citrate |  |  |  |  | 3.2 |  | Percentage of Trees Showing HLB Leaf Patterns ([7]; at 30 ppm Fe, foliar): 44%; Percentage of Trees Showing HLB Leaf Patterns ([7]; at 60 ppm Fe, foliar): 50%; % of PCR Analysis Showing No CLas (Ct values = 40) ([8]; at 30 ppm Fe, foliar): 0%; Average Ct values based on qPCR analysis of citrus leaves ([8]; at 30 ppm Fe, foliar): 29.7; Log Copy #/1 mg of Leaf Tissue ([8]; at 30 ppm Fe, foliar): 2.6; % of PCR Analysis Showing No CLas (Ct values = 40) ([8]; at 60 ppm Fe, foliar): 0%; Average Ct values based on qPCR analysis of citrus leaves ([8]; at 60 ppm Fe, foliar): 31.2; Log Copy #/1 mg of Leaf Tissue ([8]; at 60 ppm Fe, foliar): 2.1
5 | O=C(O)CC(NC(CC(=O)O)C(=O)O)C(=O)O (centres unmarked) [IDHA, imidodisuccinic acid] | 10.8 |  | 13.1 | 7.7 |  | 15.2 | 
6 | O=C(O)CN(CCO)CCN(CC(=O)O)CC(=O)O [HEEDTA] | 14.5 | 8.0 | 17.4 | 10.7 | 12.2 | 19.6 | 
7 | O=C(O)[C@@H](O)[C@@H](O)[C@H](O)[C@@H](O)C(=O)O [Saccharate] |  |  | 14.0 | 8.5 |  | 24.5 | 
8 | O=C(O)CN(CCN(CC(=O)O)Cc1ccccc1O)Cc1ccccc1O [HBED, N,N′-bis(2-hydroxyphenyl)ethylenediamine-N,N′-diacetic acid] | 18.3 | 9.3 | 21.4 | 16.5 | 17.3 | 39.0 | 
9 | O=C(O)CN(CCO)CCN(CC(=O)O)CC(=O)O [HEDTA] | 14.6 | 8.1 | 17.4 | 11.1 | 12.2 | 19.7 | 
10 | O=C(O)CN(CCN(CC(=O)O)CC(=O)O)CC(=O)O [EDTA] | 16.5 | 10.7 | 18.8 | 13.6 |  | 25.1 | 
11 | O=C(O)[C@H](O)[C@@H](O)[C@H](O)[C@H](O)CO [Gluconate] | 1.7? | 1.2 | 36.0 |  | 1.0 | 10.0 | 
